From ChEMBL document CHEMBL1129231, “Bone targeted drugs 2. synthesis of estrogens with hydroxyapatite affinity” (Bioorg Med Chem Lett, 1996)

How the values were obtained:
[1] = target: Estrogen receptor (Rattus norvegicus, UniProt P06211+Q62986); experiment: Binding affinity for rat estrogen receptor; type: protein assay
[2] = tested on: Ishikawa; experiment: Agonist activity in Ishikawa human endometrial cells; type: functional, cell-based
[3] = target: Estrogen receptor (Rattus norvegicus) (UniProt P06211+Q62986); experiment: Relative efficacy for estrogen receptor compared to estradiol; type: protein assay

IC50 [1] | EC50 [2] | Emax [3] | Structure (SMILES)
5000 nM | 1100 nM |  | CC[C@@H](c1ccc(O)cc1)[C@H](CCCCn1cc(C(=O)O)c(=O)[nH]1)c1ccc(O)cc1
100000 nM | 20000 nM |  | CC[C@@H](c1ccc(O)cc1)[C@H](Cn1cc(C(=O)O)c(=O)[nH]1)c1ccc(O)cc1
2 nM | 0.1 nM | 80% | CC[C@H](c1ccc(O)cc1)[C@@H](CC)c1ccc(O)cc1 [HEXESTROL]

Structure (SMILES) | IC50 [1] | EC50 [2] | Emax [3]
CC[C@@H](c1ccc(O)cc1)[C@H](CCCCn1cc(C(=O)O)cn1)c1ccc(O)cc1 |  | 1600 nM | 
